Results as given in PubChem BioAssay (NCI).
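All cell lines were grown in 96-well plates and treated with compound for 48 hours. GI50: concentration for 50% inhibition of growth. Definition used: TGI = concentration required for complete inhibition of growth.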

Key:
Test in all cases: DTP human tumour cell line panel, 48 h
[1] = system: 786-0 renal
[2] = system: A498 renal
[3] = system: A549 NSCLC
[4] = system: ACHN renal
[5] = system: BT-549 breast
[6] = system: CAKI-1 renal
[7] = system: CCRF-CEM leukemia
[8] = system: COLO 205 colon
[9] = system: DU-145 prostate
[10] = system: EKVX NSCLC
[11] = system: HCC-2998 colon
[12] = system: HCT-116 colon
[13] = system: HCT-15 colon
[14] = system: HL-60(TB) leukemia
[15] = system: HOP-62 NSCLC
[16] = system: HOP-92 NSCLC
[17] = system: HS 578T breast
[18] = system: HT29 colon
[19] = system: IGROV1 ovarian
[20] = system: K-562 leukemia
[21] = system: KM12 colon
[22] = system: LOX IMVI melanoma
[23] = system: M14 melanoma
[24] = system: MALME-3M melanoma
[25] = system: MCF7 breast
[26] = system: MDA-MB-231 breast
[27] = system: MDA-MB-435
[28] = system: MOLT-4 leukemia
[29] = system: NCI-H226 lung
[30] = system: NCI-H460 lung
[31] = system: NCI-H522 lung
[32] = system: OVCAR-4 ovarian
[33] = system: OVCAR-5 ovarian
[34] = system: OVCAR-8 ovarian
[35] = system: PC-3 prostate
[36] = system: RPMI-8226 leukemia
[37] = system: RXF 393 renal
[38] = system: SF-268 CNS
[39] = system: SF-295 CNS
[40] = system: SF-539 CNS
[41] = system: SK-MEL-2 melanoma
[42] = system: SK-MEL-28 melanoma
[43] = system: SK-MEL-5 melanoma
[44] = system: SK-OV-3 ovarian
[45] = system: SNB-19 CNS
[46] = system: SNB-75 CNS
[47] = system: SR leukemia
[48] = system: SW-620 colon
[49] = system: T-47D breast
[50] = system: TK-10 renal
[51] = system: U251 CNS
[52] = system: UACC-257 melanoma
[53] = system: UACC-62 melanoma
[54] = system: UO-31 renal

## Cc1ccc(N2CCN(C3=C(Cl)C(=O)c4ncccc4C3=O)CC2)cc1
[1]
  GI50: 3.35 µM
  TGI: 10.2 µM
[2]
  GI50: 15 µM
  TGI: 28.4 µM
[3]
  GI50: 15 µM
  TGI: 33.3 µM
[4]
  GI50: 1.61 µM
  TGI: 2.96 µM
[5]
  GI50: 5.51 µM
  TGI: 17.3 µM
[6]
  GI50: 1.68 µM
  TGI: 3.09 µM
[7]
  GI50: 2.21 µM
  TGI: 7.09 µM
[8]
  GI50: 1.84 µM
  TGI: 3.33 µM
[9]
  GI50: 6.05 µM
  TGI: 18.3 µM
[10]
  GI50: 1.73 µM
  TGI: 3.14 µM
[11]
  GI50: 1.77 µM
  TGI: 3.38 µM
[12]
  GI50: 1.62 µM
  TGI: 2.97 µM
[13]
  GI50: 1.54 µM
  TGI: 3.28 µM
[14]
  GI50: 1.35 µM
  TGI: 3.87 µM
[15]
  GI50: 15.4 µM
  TGI: 29.4 µM
[16]
  GI50: 1.63 µM
  TGI: 3.17 µM
[17]
  GI50: 3.64 µM
  TGI: 34.5 µM
[18]
  GI50: 5.05 µM
  TGI: 19.3 µM
[19]
  GI50: 1.74 µM
  TGI: 3.21 µM
[20]
  GI50: 1.35 µM
  TGI: 8.53 µM
[21]
  GI50: 17.5 µM
  TGI: 32 µM
[22]
  GI50: 1.52 µM
  TGI: 2.91 µM
[23]
  GI50: 1.84 µM
  TGI: 3.69 µM
[24]
  GI50: 1.77 µM
  TGI: 3.34 µM
[25]
  GI50: 1.22 µM
  TGI: 3.23 µM
[26]
  GI50: 1.59 µM
  TGI: 3.09 µM
[27]
  GI50: 1.91 µM
  TGI: 3.51 µM
[28]
  GI50: 2.09 µM
  TGI: 5.59 µM
[29]
  GI50: 10.1 µM
  TGI: 26.5 µM
[30]
  GI50: 4.49 µM
  TGI: 22.6 µM
[31]
  GI50: 1.76 µM
  TGI: 3.53 µM
[32]
  GI50: 1.68 µM
  TGI: 3.29 µM
[33]
  GI50: 3.36 µM
  TGI: 11.4 µM
[34]
  GI50: 1.6 µM
  TGI: 2.99 µM
[35]
  GI50: 2.85 µM
  TGI: 11.9 µM
[36]
  GI50: 2.14 µM
  TGI: 5.79 µM
[37]
  GI50: 1.79 µM
  TGI: 3.23 µM
[38]
  GI50: 5.91 µM
  TGI: 22.2 µM
[39]
  GI50: 2.12 µM
  TGI: 4.86 µM
[40]
  GI50: 1.85 µM
  TGI: 3.5 µM
[41]
  GI50: 2.11 µM
  TGI: 4.48 µM
[42]
  GI50: 2.35 µM
  TGI: 5.25 µM
[43]
  GI50: 1.86 µM
  TGI: 3.77 µM
[44]
  GI50: 12.8 µM
  TGI: 25.8 µM
[45]
  GI50: 13.4 µM
  TGI: 26.4 µM
[46]
  GI50: 12.8 µM
  TGI: 33.3 µM
[47]
  GI50: 0.504 µM
  TGI: 4.8 µM
[48]
  GI50: 1.47 µM
  TGI: 3.08 µM
[49]
  GI50: 1.61 µM
  TGI: 4.04 µM
[50]
  GI50: 7.15 µM
  TGI: 18.1 µM
[51]
  GI50: 1.79 µM
  TGI: 3.42 µM
[52]
  GI50: 1.75 µM
  TGI: 3.3 µM
[53]
  GI50: 1.84 µM
  TGI: 3.6 µM
[54]
  GI50: 1.53 µM
  TGI: 3.11 µM
